Measured values published in the NIST ThermoML archive (doi:10.1016/j.jct.2012.11.007).
Numbers after ± are expanded uncertainties.

Assay: mn = molality of the nth substance listed, in mol/kg
Conditions: 101 kPa, Liquid; for mass density: Vibrating tube method; for speed of sound: Pulse-echo method

CNC(N)=O [methylurea] + O
Conditions | mass density, 288.15 K [kg/m3] | mass density, 293.15 K [kg/m3] | mass density, 298.15 K [kg/m3] | mass density, 303.15 K [kg/m3] | mass density, 308.15 K [kg/m3] | speed of sound, 298.15 K [m/s]
m1 = 0.06094 | 999.856 ± 0.23 | 998.94 ± 0.23 | 997.762 ± 0.23 | 996.348 ± 0.23 | 994.718 ± 0.23 | 1499.1 ± 1.2
m1 = 0.1225 | 1000.62 ± 0.24 | 999.688 ± 0.24 | 998.491 ± 0.24 | 997.062 ± 0.24 | 995.418 ± 0.24 | 1501.5 ± 1.3
m1 = 0.1837 | 1001.38 ± 0.24 | 1000.42 ± 0.24 | 999.21 ± 0.24 | 997.766 ± 0.24 | 996.108 ± 0.24 | 1503.9 ± 1.3
m1 = 0.2452 | 1002.13 ± 0.24 | 1001.16 ± 0.24 | 999.928 ± 0.24 | 998.469 ± 0.24 | 996.799 ± 0.24 | 1506.3 ± 1.3
m1 = 0.3076 | 1002.89 ± 0.25 | 1001.9 ± 0.25 | 1000.66 ± 0.25 | 999.182 ± 0.25 | 997.498 ± 0.25 | 1508.7 ± 1.3

CCNC(=O)NCC [1,3-diethylurea] + O
Conditions | mass density, 288.15 K [kg/m3] | mass density, 293.15 K [kg/m3] | mass density, 298.15 K [kg/m3] | mass density, 303.15 K [kg/m3] | mass density, 308.15 K [kg/m3] | speed of sound, 298.15 K [m/s]
m1 = 0.06282 | 999.298 ± 0.23 | 998.383 ± 0.23 | 997.207 ± 0.23 | 995.788 ± 0.23 | 994.155 ± 0.23 | 1501.8 ± 1.2
m1 = 0.1269 | 999.524 ± 0.24 | 998.589 ± 0.24 | 997.392 ± 0.24 | 995.959 ± 0.24 | 994.306 ± 0.24 | 1507 ± 1.3
m1 = 0.1909 | 999.768 ± 0.25 | 998.812 ± 0.25 | 997.588 ± 0.25 | 996.14 ± 0.25 | 994.468 ± 0.25 | 1512.1 ± 1.3
m1 = 0.2561 | 1000.03 ± 0.25 | 999.043 ± 0.25 | 997.793 ± 0.25 | 996.313 ± 0.25 | 994.634 ± 0.25 | 1517.2 ± 1.3
m1 = 0.3224 | 1000.31 ± 0.26 | 999.289 ± 0.26 | 998.012 ± 0.26 | 996.517 ± 0.26 | 994.82 ± 0.26 | 1522.3 ± 1.3

NC(N)=O [urea] + O
Conditions | mass density, 288.15 K [kg/m3] | mass density, 293.15 K [kg/m3] | mass density, 298.15 K [kg/m3] | mass density, 303.15 K [kg/m3] | mass density, 308.15 K [kg/m3] | speed of sound, 298.15 K [m/s]
m1 = 0.06521 | 1000.18 ± 0.23 | 999.268 ± 0.23 | 998.076 ± 0.23 | 996.664 ± 0.23 | 995.029 ± 0.23 | 1498.5 ± 1.2
m1 = 0.1233 | 1001.14 ± 0.23 | 1000.2 ± 0.23 | 998.994 ± 0.23 | 997.564 ± 0.23 | 995.915 ± 0.23 | 1500 ± 1.2
m1 = 0.1812 | 1002.09 ± 0.23 | 1001.13 ± 0.23 | 999.906 ± 0.23 | 998.455 ± 0.23 | 996.792 ± 0.23 | 1501.5 ± 1.2
m1 = 0.2403 | 1003.05 ± 0.23 | 1002.07 ± 0.23 | 1000.83 ± 0.23 | 999.361 ± 0.23 | 997.684 ± 0.23 | 1503.1 ± 1.2
m1 = 0.3004 | 1004.03 ± 0.23 | 1003.02 ± 0.23 | 1001.76 ± 0.23 | 1000.28 ± 0.23 | 998.584 ± 0.23 | 1504.6 ± 1.2

CCCCNC(N)=O [N-butylurea] + O
Conditions | mass density, 288.15 K [kg/m3] | mass density, 293.15 K [kg/m3] | mass density, 298.15 K [kg/m3] | mass density, 303.15 K [kg/m3] | mass density, 308.15 K [kg/m3] | speed of sound, 298.15 K [m/s]
m1 = 0.05745 | 999.477 ± 0.23 | 998.55 ± 0.23 | 997.366 ± 0.23 | 995.939 ± 0.23 | 994.3 ± 0.23 | 1501.5 ± 1.2
m1 = 0.1154 | 999.871 ± 0.23 | 998.918 ± 0.23 | 997.706 ± 0.23 | 996.251 ± 0.23 | 994.591 ± 0.23 | 1506.3 ± 1.2
m1 = 0.173 | 1000.27 ± 0.23 | 999.281 ± 0.23 | 998.053 ± 0.23 | 996.57 ± 0.23 | 994.872 ± 0.23 | 1511.2 ± 1.2
m1 = 0.2305 | 1000.68 ± 0.23 | 999.67 ± 0.23 | 998.404 ± 0.23 | 996.892 ± 0.23 | 995.175 ± 0.23 | 1516 ± 1.2
m1 = 0.2873 | 1001.11 ± 0.23 | 1000.06 ± 0.23 | 998.771 ± 0.23 | 997.219 ± 0.23 | 995.477 ± 0.23 | 1520.9 ± 1.2

CNC(=O)NC [1,3-dimethylurea] + O
Conditions | mass density, 288.15 K [kg/m3] | mass density, 293.15 K [kg/m3] | mass density, 298.15 K [kg/m3] | mass density, 303.15 K [kg/m3] | mass density, 308.15 K [kg/m3] | speed of sound, 298.15 K [m/s]
m1 = 0.06095 | 999.619 ± 0.23 | 998.707 ± 0.23 | 997.534 ± 0.23 | 996.121 ± 0.23 | 994.493 ± 0.23 | 1499.8 ± 1.2
m1 = 0.1226 | 1000.15 ± 0.23 | 999.227 ± 0.23 | 998.04 ± 0.23 | 996.616 ± 0.23 | 994.975 ± 0.23 | 1503 ± 1.2
m1 = 0.1846 | 1000.69 ± 0.23 | 999.75 ± 0.23 | 998.549 ± 0.23 | 997.113 ± 0.23 | 995.461 ± 0.23 | 1506.1 ± 1.2
m1 = 0.247 | 1001.24 ± 0.23 | 1000.28 ± 0.23 | 999.063 ± 0.23 | 997.613 ± 0.23 | 995.947 ± 0.23 | 1509.2 ± 1.2
m1 = 0.3099 | 1001.79 ± 0.23 | 1000.82 ± 0.23 | 999.585 ± 0.23 | 998.121 ± 0.23 | 996.442 ± 0.23 | 1512.3 ± 1.2

CCNC(N)=O [ethylurea] + O
Conditions | mass density, 288.15 K [kg/m3] | mass density, 293.15 K [kg/m3] | mass density, 298.15 K [kg/m3] | mass density, 303.15 K [kg/m3] | mass density, 308.15 K [kg/m3] | speed of sound, 298.15 K [m/s]
m1 = 0.06285 | 999.725 ± 0.23 | 998.807 ± 0.23 | 997.629 ± 0.23 | 996.213 ± 0.23 | 994.58 ± 0.23 | 1500 ± 1.2
m1 = 0.1203 | 1000.29 ± 0.24 | 999.358 ± 0.24 | 998.163 ± 0.24 | 996.73 ± 0.24 | 995.083 ± 0.24 | 1503.1 ± 1.3
m1 = 0.179 | 1000.88 ± 0.24 | 999.919 ± 0.24 | 998.707 ± 0.24 | 997.258 ± 0.24 | 995.602 ± 0.24 | 1506.2 ± 1.3
m1 = 0.2358 | 1001.44 ± 0.25 | 1000.47 ± 0.25 | 999.234 ± 0.24 | 997.769 ± 0.24 | 996.09 ± 0.24 | 1509.1 ± 1.3
m1 = 0.3016 | 1002.09 ± 0.25 | 1001.09 ± 0.25 | 999.839 ± 0.25 | 998.357 ± 0.25 | 996.661 ± 0.25 | 1512.5 ± 1.3
